Measurements: patent publication US20240317721A1, “PYRAZOLYL DERIVATIVES AS INHIBITORS OF THE KRAS MUTANT PROTEIN” (NOVARTIS AG, priority 2021, published 2024)
pIC50: −log10 of the molar value.

Target: KRasG12C (M1-K169, biotinylated on the N-terminus) (Homo sapiens (Human), UniProt P01116, G12C)
Experiment: Covalent competition assay: scintillation proximity assay (SPA) quantifying covalent modification of KRASG12C
Assay type: binding
Conditions: competition with radiolabeled covalent probe (Compound B/Compound A), 2 hours incubation, 10 nM KRasG12C
Method: Cells were harvested by centrifugation and frozen at −80° C. until further processing. […] The cells were lysed by 4 passages through an Avestin Emulsiflex at about 20000 psi and insoluble debris removed by centrifugation and filtered through a 0.45 µm Durapore membrane (Millipore). […] Eluted protein fractions were analyzed by Novex NuPage 4-12% PAGE. […] The protein in the flow through was subjected to a final polishing step on a HiLoad 16/60 Superdex 200 prep grade size-exclusion column pre-equilibrated with SEC-buffer (20 mM HEPES pH 7.4, 150 mM NaCl, 5 mM MgCl2, 1 µM GDP). Positive fractions were determined by PAGE (Novex NuPage 4-12% BisTris) analysis.
A scintillation proximity assay (SPA) was used to determine the potency of the compounds.
This assay measures the ability of the test compound to compete with the radiolabeled covalent probe for binding to and covalently modify KRASG12C.
(see above for synthesis of Compound A and Compound B). A serial dilution of the compounds to be tested is mixed with a fixed concentration of the radiolabeled covalent probe before incubation with KRASG12C:GDP as described below. KRASG12C can either be bound by the radiolabeled covalent probe (Compound B), resulting in light being emitted from the beads, or bound by covalent test compound preventing signal generation.
A 1/20 isotopic dilution of labeled (Compound B) and non-labeled covalent (Compound A) probe was prepared and added to all wells on the plate. The reaction was started by addition of KRasG12C (M1-K169, biotinylated on the N-terminus) to the compounds and incubated for 2 hours with continuous agitation allowing for full modification of KRasG12C with probe or test compounds. Final concentrations in an assay volume of 40 μL were 10 nM KRasG12C, 25 nM radio-ligand and 475 nM unlabelled ligand. The assay buffer contained 20 mM Tris-HCl pH 7.5 (Invitrogen), 150 mM NaCl (Sigma Aldrich), 0.1 mM MgCl2 (Sigma Aldrich), and 0.01% Tween-20 (Sigma Aldrich). Following addition of 50 μL of a 400 μg/mL suspension of streptavidin-coated YSi beads (Perkin Elmer), plates were incubated for a further 30 min with continuous agitation before reading the plates on a scintillation counter (Topcount NXT 384 (Packard).
Evaluation was carried out using assay data analysis software (such as the standard Novartis in-house Helios software application, Novartis Institutes for BioMedical Research, unpublished) using the methods described in Formenko et al., Robust Regression for high-throughput screening, Computer Methods and Programs in Biomedicine, 2006, 82, 31-37. Following normalization of activity values for the wells to % inhibition (% inhibition=[(high control−sample)/(high control−low control)]×100), IC50 fitting was carried out from the duplicate determinations present on each plate according to Formenko et al., 2006.
Evaluation can also be carried out using commercially available software which is designed to derive IC50 values using 4-parameter fits (e.g. GraphPad Prism, XL fit).

| pIC50 | SMILES |
| --- | --- |
| < 5.30 | C=CC(=O)N1CC2(CC(n3nc(N4CC5(CCOC5)C4)c(-c4c(Cl)c(Cl)cc5[nH]ncc45)c3C)C2)C1 (single isomer, unassigned) [Example 108a, 1-(6-(4-(5,6-dichloro-1H-indazol-4-yl)-5-methyl-3-(6-oxa-2-azaspiro[3.4]octan-2-yl)-1H-pyrazol-1-yl)-2-azaspiro[3.3]heptan-2-yl)prop-2-en-1-one] |
| 5.96 | C=CC(=O)N1CC2(CC(n3nc(N4CC[C@@H](CN5C[C@H](O)C[C@H]5COC)CC4(C)C)c(-c4c(Cl)c(Cl)cc5[nH]ncc45)c3C)C2)C1 (single isomer, unassigned) [Example 286a] |
| < 5.30 | C=CC(=O)N1CC2(CC(n3nc(N4CC[C@@H](CN5CCC6COCC65)CC4(C)C)c(-c4c(C)c(Cl)cc5[nH]ncc45)c3C)C2)C1 (single isomer, unassigned) [Example 306a, 1-(6-(4-(6-chloro-5-methyl-1H-indazol-4-yl)-3-((R)-4-(((3aR*,6aR*)-hexahydro-1H-furo[3,4-b]pyrrol-1-yl)methyl)-2,2-dimethylpiperidin-1-yl)-5-methyl-1H-pyrazol-1-yl)-2-azaspiro[3.3]heptan-2-yl)prop-2-en-1-one] |
| < 5.30 | C=CC(=O)N1CC2(CC(n3nc(N4CC[C@@H](OCCN5CCOCC5)CC4(C)C)c(-c4c(Cl)c(Cl)cc5[nH]ncc45)c3C)C2)C1 (single isomer, unassigned) [Example 110a] |
| 4.98 | C=CC(=O)N1CC2(CC(n3nc(N4CCN(C(C)=O)CC4)c(-c4c(Cl)ccc5[nH]ncc45)c3C)C2)C1C (single isomer, unassigned) [Example 195a, 1-(6-(3-(4-Acetylpiperazin-1-yl)-4-(5-chloro-1H-indazol-4-yl)-5-methyl-1H-pyrazol-1-yl)-1-methyl-2-azaspiro[3.3]heptan-2-yl)prop-2-en-1-one] |
| 5.35 | C=CC(=O)N1CC2(CC(n3nc(N4C[C@H](C)N(C5COC5)CC4(C)C)c(-c4c(Cl)c(Cl)cc5[nH]ncc45)c3C)C2)C1 (single isomer, unassigned) [Example 104a] |
| < 5.30 | C=CC(=O)N1CC2(CC(n3nc(N4CCN(CC5(O)CC5)CC45CCC5)c(-c4c(Cl)c(C)cc5[nH]ncc45)c3C)C2)C1 (single isomer, unassigned) [Example 154a, 1-(6-(4-(5-chloro-6-methyl-1H-indazol-4-yl)-3-(8-((1-hydroxycyclopropyl)methyl)-5,8-diazaspiro[3.5]nonan-5-yl)-5-methyl-1H-pyrazol-1-yl)-2-azaspiro[3.3]heptan-2-yl)prop-2-en-1-one] |
| 8.22 | C=CC(=O)N1CC2(CC(n3nc(N4CC[C@@H](CN5CCN6CCOC[C@@H]6C5)CC4(C)C)c(-c4c(Cl)c(Cl)cc5[nH]ncc45)c3C)C2)C1 (single isomer, unassigned) [Example 279b] |
| 8.22 | C=CC(=O)N1CC2(CC(n3nc(N4CCC(N(CC)C5COC5)CC4(C)C)c(-c4c(Cl)c(C)cc5[nH]ncc45)c3C)C2)C1 (single isomer, unassigned) [Example 48b, 1-(6-(4-(5-chloro-6-methyl-1H-indazol-4-yl)-3-(4-(ethyl(oxetan-3-yl)amino)-2,2-dimethylpiperidin-1-yl)-5-methyl-1H-pyrazol-1-yl)-2-azaspiro[3.3]heptan-2-yl)prop-2-en-1-one] |
| < 5.30 | C=CC(=O)N1CC2(CC(n3nc(N4CCN(C5COC5)CC45CCOC5)c(-c4c(Cl)c(C)cc5[nH]ncc45)c3C)C2)C1 (centres unmarked) [Example 142b, 1-(6-(4-(5-chloro-6-methyl-1H-indazol-4-yl)-5-methyl-3-(9-(oxetan-3-yl)-2-oxa-6,9-diazaspiro[4.5]decan-6-yl)-1H-pyrazol-1-yl)-2-azaspiro[3.3]heptan-2-yl)prop-2-en-1-one] |
| 7.09 | C=CC(=O)N1CC2(CC(n3nc(N4CCC(CN5CCOCC5)C4(C)C)c(-c4c(Cl)c(Cl)cc5[nH]ncc45)c3C)C2)C1 (single isomer, unassigned) [Example 218a, 1-(6-(4-(5,6-dichloro-1H-indazol-4-yl)-3-(2,2-dimethyl-3-(morpholinomethyl)pyrrolidin-1-yl)-5-methyl-1H-pyrazol-1-yl)-2-azaspiro[3.3]heptan-2-yl)prop-2-en-1-one] |
| 5.42 | C=CC(=O)N1CC2(CC(n3nc(N4CCC5(CN(C)CCO5)CC4(C)C)c(-c4c(Cl)c(C)cc5[nH]ncc45)c3C)C2)C1 (single isomer, unassigned) [Example 208b, 1-(6-(4-(5-chloro-6-methyl-1H-indazol-4-yl)-5-methyl-3-(4,8,8-trimethyl-1-oxa-4,9-diazaspiro[5.5]undecan-9-yl)-1H-pyrazol-1-yl)-2-azaspiro[3.3]heptan-2-yl)prop-2-en-1-one] |
| 8.05 | C=CC(=O)N1CC2(CC(n3nc(N4CC[C@@H](CN5CC6(C5)CS(=O)(=O)C6)CC4(C)C)c(-c4c(Cl)c(Cl)cc5[nH]ncc45)c3C)C2)C1 (single isomer, unassigned) [Example 248b] |
| < 5.30 | C=CC(=O)N1CC2(CC(n3nc(N4CCC(N(C)[C@@H]5CCOC5)CC4(C)C)c(-c4c(Cl)c(C)cc5[nH]ncc45)c3C)C2)C1 (single isomer, unassigned) [Example 84a] |
| < 5.30 | C=CC(=O)N1CC2(CC(n3nc(N4CC[C@@H](CN5CCOCC56COC6)CC4(C)C)c(-c4c(C)c(Cl)cc5[nH]ncc45)c3C)C2)C1 (single isomer, unassigned) [Example 302a] |
| 6.92 | C=CC(=O)N1CC2(CC(n3nc(N4CCc5c(cnn5C)C4)c(-c4c(Cl)c(C)cc5[nH]ncc45)c3C)C2)C1 (single isomer, unassigned) [Example 11b, 1-(6-(4-(5-chloro-6-methyl-1H-indazol-4-yl)-5-methyl-3-(1-methyl-1,4,6,7-tetrahydro-5H-pyrazolo[4,3-c]pyridin-5-yl)-1H-pyrazol-1-yl)-2-azaspiro[3.3]heptan-2-yl)prop-2-en-1-one] |
| 5.35 | C=CC(=O)N1CC2(CC(n3nc(N4CCN(C5CCOC5)CC45CCC5)c(-c4c(Cl)c(C)cc5[nH]ncc45)c3C)C2)C1 (single isomer, unassigned) [Example 132b, 1-(6-(4-(5-chloro-6-methyl-1H-indazol-4-yl)-5-methyl-3-(8-(tetrahydrofuran-3-yl)-5,8-diazaspiro[3.5]nonan-5-yl)-1H-pyrazol-1-yl)-2-azaspiro[3.3]heptan-2-yl)prop-2-en-1-one] |
| 8.22 | C=CC(=O)N1CC2(CC(n3nc(N4CC[C@@H](CN5CCN(C6COC6)CC5)CC4(C)C)c(-c4c(C)c(Cl)cc5[nH]ncc45)c3C)C2)C1 (single isomer, unassigned) [Example 244b] |
| < 4.82 | C=CC(=O)N1CC2(CC(n3nc(N4CCN(CC(F)(F)F)CC4(C)C)c(-c4c(Cl)c(C)cc5[nH]ncc45)c3C)C2)C1 (single isomer, unassigned) [Example 68a, 1-(6-(4-(5-chloro-6-methyl-1H-indazol-4-yl)-3-(2,2-dimethyl-4-(2,2,2-trifluoroethyl)piperazin-1-yl)-5-methyl-1H-pyrazol-1-yl)-2-azaspiro[3.3]heptan-2-yl)prop-2-en-1-one] |
| 7.57 | C=CC(=O)N1CC2(CC(n3nc(N4CCN(CC(C)(C)O)CC45CCC5)c(-c4c(Cl)c(C)cc5[nH]ncc45)c3C)C2)C1 (single isomer, unassigned) [Example 160b, 1-(6-(4-(5-Chloro-6-methyl-1H-indazol-4-yl)-3-(8-(2-hydroxy-2-methylpropyl)-5,8-diazaspiro[3.5]nonan-5-yl)-5-methyl-1H-pyrazol-1-yl)-2-azaspiro[3.3]heptan-2-yl)prop-2-en-1-one] |
